Experimental data: US20230346272A1 (priority 2021, published 2023)

Test: Differential Pulse Voltammetry (DPV) with microneedle sensor array, oxycodone and metabolites (FIG. 10)
Assay type: physicochemical
Settings: applied voltages from 0 to 1.2V

## COc1ccc2c3c1O[C@H]1C(=O)CC[C@@]4(O)[C@@H](C2)N(C)CC[C@]314 [oxycodone]
  current peak (DPV): about 100 μA
  voltage of the current peak (DPV): about 0.75 V

## CN1CC[C@]23c4c5ccc(O)c4O[C@H]2C(=O)CC[C@@]3(O)[C@H]1C5 [oxymorphone]
  current peak (DPV): about 30 μA
  voltage of the current peak (DPV): about 0.45 V

## COc1ccc2c3c1O[C@H]1C(=O)CC[C@@]4(O)[C@@H](C2)NCC[C@]314 [noroxycodone]
  current peak (DPV): about 165 μA
  voltage of the current peak (DPV): about 0.95 V
